In patent publication US20070093520A1, “Method of treatment of diarrhea-predominant irritable bowel syndrome in a subject” (priority 2005, published 2007):

Test system: diarrhea-predominant IBS subjects
Experiment: 3007 Study: open-label 52-week safety study, adverse events and withdrawals
[1] = Overall, N=536, % of appropriate gender

Cc1nccn1C[C@H]1CCc2c(c3cccc4c3n2CCC4)C1=O [cilansetron, (R)-(−)-4,5,6,8,9,10-hexahydro-10-[(2-methyl-1H-imidazol-1-yl)methyl]-11H-pyrido-[3,2,1-jk]-carbazol-11-one]
TEAE leading to permanent discontinuation: Dyspepsia (Overall, N=536): 2 (<1%) n (%)
TEAE leading to permanent discontinuation: Ear and Labyrinth Disorders (Overall, N=536): 1 (<1%) n (%)
TEAE leading to permanent discontinuation: Epigastric Discomfort (Overall, N=536): 1 (<1%) n (%)
TEAE leading to permanent discontinuation: Eructation (Overall, N=536): 1 (<1%) n (%)
TEAE leading to permanent discontinuation: Eye Disorders (Overall, N=536): 1 (<1%) n (%)
TEAE leading to permanent discontinuation: Faecal Abnormality NOS (Overall, N=536): 1 (<1%) n (%)
TEAE leading to permanent discontinuation: Faecal Impaction (Overall, N=536): 1 (<1%) n (%)
TEAE leading to permanent discontinuation: Faecal Incontinence (Overall, N=536): 1 (<1%) n (%)
TEAE leading to permanent discontinuation: Faeces Hard (Overall, N=536): 1 (<1%) n (%)
TEAE leading to permanent discontinuation: Fatigue (Overall, N=536): 4 (<1%) n (%)
TEAE leading to permanent discontinuation: Fibroma NOS (Overall, N=536): 1 (<1%) n (%)
TEAE leading to permanent discontinuation: Flatulence (Overall, N=536): 7 (1%) n (%)
TEAE leading to permanent discontinuation: Gastric Irritation (Overall, N=536): 1 (<1%) n (%)
TEAE leading to permanent discontinuation: Gastrointestinal Disorders (Overall, N=536): 64 (12%) n (%)
TEAE leading to permanent discontinuation: Gastrointestinal Motility Disorder NOS (Overall, N=536): 1 (<1%) n (%)
TEAE leading to permanent discontinuation: General Disorders and Administration Site Conditions (Overall, N=536): 7 (1%) n (%)
TEAE leading to permanent discontinuation: Haemorrhoidal Haemorrhage (Overall, N=536): 1 (<1%) n (%)
TEAE leading to permanent discontinuation: Hallucination NOS (Overall, N=536): 1 (<1%) n (%)
TEAE leading to permanent discontinuation: Hallucination, Auditory (Overall, N=536): 1 (<1%) n (%)
TEAE leading to permanent discontinuation: Headache NOS (Overall, N=536): 4 (<1%) n (%)
TEAE leading to permanent discontinuation: Headache NOS Aggravated (Overall, N=536): 1 (<1%) n (%)
TEAE leading to permanent discontinuation: Heart Rate Increased (Overall, N=536): 1 (<1%) n (%)
TEAE leading to permanent discontinuation: Hepatobiliary Disorders (Overall, N=536): 1 (<1%) n (%)
TEAE leading to permanent discontinuation: Hepatosplenomegaly NOS (Overall, N=536): 1 (<1%) n (%)
TEAE leading to permanent discontinuation: Hiatus Hernia (Overall, N=536): 1 (<1%) n (%)
TEAE leading to permanent discontinuation: Investigations (Overall, N=536): 5 (<1%) n (%)
TEAE leading to permanent discontinuation: Irritable Bowel Syndrome Aggravated (Overall, N=536): 1 (<1%) n (%)
TEAE leading to permanent discontinuation: Lethargy (Overall, N=536): 1 (<1%) n (%)
TEAE leading to permanent discontinuation: Metabolism and Nutrition Disorders (Overall, N=536): 1 (<1%) n (%)
TEAE leading to permanent discontinuation: Migraine NOS (Overall, N=536): 1 (<1%) n (%)
TEAE leading to permanent discontinuation: Muscle Cramps (Overall, N=536): 2 (<1%) n (%)
TEAE leading to permanent discontinuation: Musculoskeletal and Connective Tissue Disorders (Overall, N=536): 7 (1%) n (%)
TEAE leading to permanent discontinuation: Nausea (Overall, N=536): 3 (<1%) n (%)
TEAE leading to permanent discontinuation: Neoplasms Benign, Malignant and Unspecified (Incl Cysts and Polyps) (Overall, N=536): 5 (<1%) n (%)
TEAE leading to permanent discontinuation: Nervous System Disorders (Overall, N=536): 8 (1%) n (%)
TEAE leading to permanent discontinuation: Pregnancy, Puerperium and Perinatal Conditions (Overall, N=536): 1 (<1%) n (%)
TEAE leading to permanent discontinuation: Pruritus NOS (Overall, N=536): 1 (<1%) n (%)
TEAE leading to permanent discontinuation: Psychiatric Disorders (Overall, N=536): 1 (<1%) n (%)
TEAE leading to permanent discontinuation: Psychotic Disorder NOS (Overall, N=536): 1 (<1%) n (%)
TEAE leading to permanent discontinuation: Rash Macular (Overall, N=536): 1 (<1%) n (%)
TEAE leading to permanent discontinuation: Rash NOS (Overall, N=536): 1 (<1%) n (%)
TEAE leading to permanent discontinuation: Rectal Disorder NOS (Overall, N=536): 1 (<1%) n (%)
TEAE leading to permanent discontinuation: Rectal Haemorrhage (Overall, N=536): 4 (<1%) n (%)
TEAE leading to permanent discontinuation: Rectal Tenesmus (Overall, N=536): 1 (<1%) n (%)
TEAE leading to permanent discontinuation: Renal and Urinary Disorders (Overall, N=536): 1 (<1%) n (%)
TEAE leading to permanent discontinuation: Respiratory, Thoracic and Mediastinal Disorders (Overall, N=536): 3 (<1%) n (%)
TEAE leading to permanent discontinuation: Skin and Subcutaneous Tissue Disorders (Overall, N=536): 4 (<1%) n (%)
TEAE leading to permanent discontinuation: Somnolence (Overall, N=536): 1 (<1%) n (%)
TEAE leading to permanent discontinuation: Stomach Discomfort (Overall, N=536): 1 (<1%) n (%)
TEAE leading to permanent discontinuation: Suicidal Ideation (Overall, N=536): 1 (<1%) n (%)
TEAE leading to permanent discontinuation: Urticaria NOS (Overall, N=536): 1 (<1%) n (%)
TEAE leading to permanent discontinuation: Vertigo (Overall, N=536): 1 (<1%) n (%)
TEAE leading to permanent discontinuation: Visual Acuity Reduced (Overall, N=536): 1 (<1%) n (%)
TEAE leading to permanent discontinuation: Vomiting NOS (Overall, N=536): 1 (<1%) n (%)
TEAE leading to permanent discontinuation: White Blood Cells Urine Positive (Overall, N=536): 1 (<1%) n (%)
Total Number of Subjects with at Least One TEAE Leading to Discontinuation of Study Medication (Overall, N=536): 83 (15%) n (%)
TEAE leading to permanent discontinuation: Benign Ovarian Tumour* [1]: 1 (<1%) n (%)
TEAE leading to permanent discontinuation: Breast Cancer NOS* [1]: 2 (<1%) n (%)
TEAE leading to permanent discontinuation: Ovarian Cancer NOS* [1]: 1 (<1%) n (%)
TEAE leading to permanent discontinuation: Ovarian Cystadenofibroma* [1]: 1 (<1%) n (%)
TEAE leading to permanent discontinuation: Pregnancy NOS* [1]: 1 (<1%) n (%)
TEAE: Female Reproductive Tract Infections* (Overall, gender-specific): 2 (<1%) n (%)
TEAE: Prostate Examination Abnormal* (Overall, gender-specific): 1 (<1%) n (%)
TEAE: Smear Cervix Abnormal* (Overall, gender-specific): 1 (<1%) n (%)
TEAE: Vaginal Candidiasis* (Overall, gender-specific): 2 (<1%) n (%)
TEAE: Vaginitis Bacterial NOS* (Overall, gender-specific): 1 (<1%) n (%)
TEAE: Vaginitis* (Overall, gender-specific): 1 (<1%) n (%)
TEAE: Vaginosis Fungal NOS* (Overall, gender-specific): 2 (<1%) n (%)
TEAE: Abdominal Therapeutic Procedures NEC (P/C group): 1 (<1%) n (%)
TEAE: Abdominoplasty (P/C group): 1 (<1%) n (%)
TEAE: Abnormal Chest Sounds NOS (P/C group): 1 (<1%) n (%)
TEAE: Acne NOS (P/C group): 0 n (%)
TEAE: Acnes (P/C group): 0 n (%)
TEAE: Acquired Hypothyroidism (P/C group): 1 (<1%) n (%)
TEAE: Acrochordons (P/C group): 1 (<1%) n (%)
TEAE: Adenomyosis* (P/C group): 0 n (%)
TEAE: Age Related Issues (P/C group): 1 (<1%) n (%)
TEAE: Allergic Conditions NEC (P/C group): 2 (<1%) n (%)
TEAE: Allergies to Foods, Food Additives, Drugs and Other Chemicals (P/C group): 1 (<1%) n (%)
TEAE: Allergy to Insect Sting (P/C group): 1 (<1%) n (%)
TEAE: Alopecia (P/C group): 1 (<1%) n (%)
TEAE: Alopecias (P/C group): 1 (<1%) n (%)
TEAE: Amenorrhoea NOS* (P/C group): 0 n (%)
TEAE: Anaemia NOS (P/C group): 1 (<1%) n (%)
